Measurements published in US8809347B2, “Bicyclic aryl and bicyclic heteroaryl substituted triazoles useful as AXL inhibitors” (Rigel Pharmaceuticals, Inc., priority 2006, dated 2014).

Molecular target: T1, Axl (Homo sapiens, UniProt P30530)
T1 construct: Cells: Hela cells; endogenous in cells; host or cells: HeLa cells
T1 sequence (P30530 26-894): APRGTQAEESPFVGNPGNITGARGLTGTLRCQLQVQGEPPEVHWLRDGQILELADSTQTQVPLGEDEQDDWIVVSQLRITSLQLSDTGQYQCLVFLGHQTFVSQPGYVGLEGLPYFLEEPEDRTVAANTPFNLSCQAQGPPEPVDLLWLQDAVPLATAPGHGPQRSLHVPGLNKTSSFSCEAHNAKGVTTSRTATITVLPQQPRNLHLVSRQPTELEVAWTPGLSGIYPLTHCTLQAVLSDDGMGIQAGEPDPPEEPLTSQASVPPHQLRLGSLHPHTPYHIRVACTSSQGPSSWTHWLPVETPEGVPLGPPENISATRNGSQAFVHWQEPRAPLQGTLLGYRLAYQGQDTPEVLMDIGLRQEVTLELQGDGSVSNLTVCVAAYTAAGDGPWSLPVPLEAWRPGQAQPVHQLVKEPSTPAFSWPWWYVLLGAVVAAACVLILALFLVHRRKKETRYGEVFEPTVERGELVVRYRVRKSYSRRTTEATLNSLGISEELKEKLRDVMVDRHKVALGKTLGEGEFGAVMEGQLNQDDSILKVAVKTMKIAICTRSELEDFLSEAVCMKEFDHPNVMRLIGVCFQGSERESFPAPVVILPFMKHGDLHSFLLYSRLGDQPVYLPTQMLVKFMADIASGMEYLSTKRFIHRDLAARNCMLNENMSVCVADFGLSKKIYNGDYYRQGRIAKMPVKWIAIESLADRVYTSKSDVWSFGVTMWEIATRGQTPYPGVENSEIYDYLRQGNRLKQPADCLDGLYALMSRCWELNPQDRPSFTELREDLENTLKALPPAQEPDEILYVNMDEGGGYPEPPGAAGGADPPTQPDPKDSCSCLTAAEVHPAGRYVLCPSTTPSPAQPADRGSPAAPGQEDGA
Assay: Phospho-Akt in-cell Western assay (inhibition of Axl activity)
Type: cell-based
Conditions: Hela cells; 1 hr pre-treatment; stimulation by Axl-antibody cross-linking; phospho-Akt chemiluminescence normalized to relative cell number
Procedure: The compounds of the invention were tested in the following assay for their ability to inhibit Axl activity.
Phospho-Akt in-Cell Western Assay
• Cell culture plate: 96 well assay plate (Corning 3610), white, clear bottom, tissue-culture treated. • Cells: Hela cells. • Starvation medium: For Axl stimulation: 0.5% FCS (fetal calf serum) in DMEM, plus Axl/Fc (extracellular domain of AXL fused to immunoglobulin Fc region) (R&D, 154-AL) 500 ng/mL. • For EGF (epidermal growth factor) stimulation: 0.5% FCS in DMEM (Dulbecco's modified Eagles medium). • Poly-L-Lysine 0.01% solution (the working solution): […], dilute In PBS (phosphate buffered saline). • Axl antibody cross-linking: • 1st: Mouse anti-Axl (R&D, MAB154). • 2nd: Biotin-SP-conjugated AffiniPure goat anti-mouse IgG (H+ L) (Jackson ImmunoResearch #115-065-003). • Fixing buffer: 4% formaldehyde in PBS. • Wash buffer: 0.1% TritonX-100 in PBS. • Quenching buffer: 3% H2O2, 0.1% Azide in wash buffer, Azide and hydrogen peroxide (H2O2) are added fresh. • Blocking buffer: 5% BSA in TBST (tris buffered saline plus 0.1% Tween 20). • Primary antibody: Rabbit anti-human Phospho-Akt antibody (Cell Signaling 9271): 1×250 diluted in blocking buffer. • Secondary antibody: HRP (horse radish peroxidase)-conjugated Goat anti-Rabbit secondary, stock solution: Jackson ImmunoResearch (Goat anti-Rabbit HRP, #111-035-144) 1:1 diluted in glycerol, store at −20° C. The working solution: 1×2000 dilution of stock in blocking buffer. • Chemiluminescent working solution (Pierce, 37030): SuperSignal ELISA (enzyme linked immunosorbant assay) Pico Chemiluminescent substrate. • Crystal Violet solution: Stock: 2.5% Crystal violet in methanol, filtered and kept at ambient temperature. The working solution: dilute the stock 1:20 with PBS immediately before use. • 10% SDS: working solution: 5% SDS (sodium dodecylsulfate), diluted in PBS Methods: Day 1:
A 96 well TC (tissue culture treated) plate was coated with 10 μg/mL poly-L-Lysine at 37° C. for 30 min, washed twice with PBS, and air-dried for 5 minutes before cells were added. Hela cells were seeded at 10,000 cells/well and the cells were starved in 100 μL starvation medium containing Axl/Fc for 24 hrs.
The cells were pre-treated with test compounds by adding 100 μL of 2× test compound to the starvation medium on the cells. The cells were incubated at 37° C. for 1 hr before stimulation.
The cells were stimulated by Axl-antibody cross-linking as follows: A 5× 1st/2nd Axl antibody mixture was made (37.5 μg/mL 1st/100 μg/mL 2nd) in starvation medium and nutated at 4° C. with thorough mixing for 1-2 hours for clustering. The resulting mix was warmed to 37° C. 50 μL of 5× Axl 1st/2nd of antibody cluster was added to the cells and the cells were incubated at 37° C. for 5 min.
After 5 minutes stimulation, the plate was flicked to remove medium and the plate was tapped onto paper towels. Formaldehyde (4.0% in PBS, 100 μL) was added to fix the cells and the cells were incubated at ambient temperature for 20 min without shaking.
The cells were washed with a plate washer buffer to remove the formaldehyde solution. The plate was flicked to removed excess wash buffer and tapped onto paper towels. Quenching buffer (100 μL) was added to each well and the cells were incubated at ambient temperature for 20 minutes without shaking.
The cells were washed with a plate washer buffer to remove the quenching buffer. Blocking buffer (100 μL) was added and the cells were incubated at ambient temperature for at least an hour with gentle shaking.
The cells were washed with a plate washer buffer and diluted primary antibody (50 μL) was added to each well (blocking buffer was added to the negative control wells instead). The plates were incubated overnight at 4° C. with gentle shaking.
The wash buffer was removed, diluted secondary antibody (100 μL) was added, and the cells were incubated at ambient temperature for 1 hour with gentle shaking. […]

Compound	IC50 [nM]
Nc1nc(Nc2ccc(OCCN3CCCC3)cc2)nn1-c1ccc2c(n1)CCCCCC2 [Compound 22, 1-(5,6,7,8,9,10-hexahydrocycloocta[b]pyridin-2-yl)-N^3-(4-(2-(pyrrolidin-1-yl)ethoxy)phenyl)-1H-1,2,4-triazole-3,5-diamine]	< 1000
Nc1nc(Nc2ccc(N3CCC(N4CCOCC4)CC3)c(F)c2)nn1-c1ncc2c(n1)CCCCCC2 [Compound 25, N^3-(3-fluoro-4-(4-morpholinopiperidin-1-yl)phenyl)-1-(5,6,7,8,9,10-hexahydrocycloocta[d]pyrimidin-2-yl)-1H-1,2,4-triazole-3,5-diamine]	1000 to 10000
Nc1nc(Nc2ccc(N3CCN(C4CC5CCC4C5)CC3)cc2)nn1-c1ncnc2c1CCCCCC2 (stereo not drawn) [Compound 24, N^3-(4-(4-(bicyclo[2.2.1]heptan-2-yl)piperazin-1-yl)phenyl)-1-(5,6,7,8,9,10-hexahydrocycloocta[d]pyrimidin-4-yl)-1H-1,2,4-triazole-3,5-diamine]	< 1000
Nc1nc(Nc2ccc(OCCN3CCCC3)cc2)nn1-c1ncc2c(n1)CCCCCC2 [Compound 1, 1-(5,6,7,8,9,10-hexahydrocycloocta[d]pyrimidin-2-yl)-N^3-(4-(2-(pyrrolidin-1-yl)ethoxy)phenyl)-1H-1,2,4-triazole-3,5-diamine]	< 1000
Nc1nc(Nc2ccc(OCCN3CCCC3)cc2)nn1-c1ncnc2c1CCCCCC2 [Compound 20, 1-(5,6,7,8,9,10-hexahydrocycloocta[d]pyrimidin-4-yl)-N^3-(4-(2-(pyrrolidin-1-yl)ethoxy)phenyl)-1H-1,2,4-triazole-3,5-diamine]	< 1000
Nc1nc(Nc2ccc(N3CC(N4CCCC4)C3)c(F)c2)nn1-c1ncnc2c1CCCCCC2 [Compound 36, N^3-(3-fluoro-4-(3-(pyrrolidin-1-yl)azetidin-1-yl)phenyl)-1-(5,6,7,8,9,10-hexahydrocycloocta[d]pyrimidin-4-yl)-1H-1,2,4-triazole-3,5-diamine]	< 1000
Nc1nc(Nc2ccc3c(c2)CCN(C2CCCC2)CCC3)nn1-c1nc2ccccc2s1 [Compound 33, 1-(benzo[d]thiazol-2-yl)-N^3-(3-cyclopentyl-1,2,3,4,5,6-hexahydrobenzo[d]azocin-9-yl)-1H-1,2,4-triazole-3,5-diamine]	< 1000

More lines, now with the values ahead:

IC50 [nM]	Compound
< 1000	COc1cc2ncnc(-n3nc(Nc4ccc5c(c4)CCCN(C4CC6CCC4C6)CC5)nc3N)c2cc1OC (stereo not drawn) [Compound 39, N^3-(3-(bicyclo[2.2.1]heptan-2-yl)-1,2,3,4,5,6-hexahydrobenzo[d]azocin-8-yl)-1-(6,7-dimethoxyquinazolin-4-yl)-1H-1,2,4-triazole-3,5-diamine]
1000 to 10000	Cc1csc2c(-n3nc(Nc4ccc5c(c4)C(=O)NCCCC5)nc3N)ncnc12 [Compound 49, N^3-(1-oxo-1,2,3,4,5,6-hexahydrobenzo[c]azocin-9-yl)-1-(7-methylthieno[3,2-d]pyrimidin-4-yl)-1H-1,2,4-triazole-3,5-diamine]
< 1000	Cc1csc2c(-n3nc(Nc4ccc5c(c4)CCCN(C4CC6CCC4C6)CC5)nc3N)nc(Cl)nc12 (stereo not drawn) [Compound 38, N^3-(3-(bicyclo[2.2.1]heptan-2-yl)-1,2,3,4,5,6-hexahydrobenzo[d]azocin-8-yl)-1-(2-chloro-7-methylthieno[3,2-d]pyrimidin-4-yl)-1H-1,2,4-triazole-3,5-diamine]
1000 to 10000	Nc1nc(Nc2ccc(N3CCC(N4CCCC4)CC3)c(F)c2)nn1-c1cc(-c2ccccc2)c2c(n1)CCCCCC2 [Compound 45, N^3-(3-fluoro-4-(4-(pyrrolidin-1-yl)piperidin-1-yl)phenyl)-1-(4-phenyl-5,6,7,8,9,10-hexahydrocycloocta[b]-pyridin-2-yl)-1H-1,2,4-triazole-3,5-diamine]
< 1000	Cc1csc2c(-n3nc(Nc4cnc5c(c4)CCC(N4CCCC4)CCC5)nc3N)ncnc12 (stereo not drawn) [Compound 40, 1-(7-methylthieno[3,2-d]pyrimidin-4-yl)-N^3-(7-(pyrrolidin-1-yl)-5,6,7,8,9,10-hexahydrocycloocta[b]pyridin-3-yl)-1H-1,2,4-triazole-3,5-diamine]
